We go through five molecules from patent US6180622A, “Imidazo[5,1-b]thiazol-3-yl carbapenem antimicrobials” (priority 1996, dated 2001).

Broadly, the MIC is the least concentration at which growth counts as inhibited.

Values after ≈ are worked out from the molar mass of the structure shown. Read-outs that look alike come from different tables or passages of the source.

For one series, the system named is C. freundii GN346. Briefly: Antimicrobial activity (minimum inhibitory concentration). Particulars: Citrobacter freundii. The class given is cell-based. The procedure:
(§1) For representative compounds among the novel carbapenem derivatives of the present invention, the minimum inhibitory concentration (MIC, μg/ml) against various pathogenic bacteria was measured in accordance with a method described in CHEMOTHERAPY, Vol. 16, No. 1, 99 (1968).

In another series the test system is E. cloacae G-0008. The description is as above. The class given is cell-based. The settings on record: Enterobacter cloacae, G0008. On the procedure: as §1
A further series relates to E. coli GN206. Described as above. Particulars: Escherichia coli. The class given is cell-based. The procedure:
as §1

The next series deals with E. coli NIHJ JC-2. Described as above. The settings on record: Escherichia coli, NIHJJC2. The class given is cell-based. On the procedure: as §1
A further series has as its system K. pneumoniae PCI602. The series is described as above. It counts as cell-based. Particulars: Klebsiella pneumoniae. The procedure:
as §1

In the next series the test system is M. morganii 1510. The series is described as above. Particulars: Morganella morganii. The class given is cell-based. On the procedure: as §1
In the next series the test system is P. vulgaris GN76. Described as above. Particulars: Proteus vulgaris. The class given is cell-based. The procedure: as §1
The next series has as its system Ps. aeruginosa GN10362. The description is as above. It counts as cell-based. Particulars: Pseudomonas aeruginosa. The procedure:
as §1

Another series relates to S. aureus 209P JC-1. Described as above. The settings on record: Staphylococcus aureus. It counts as cell-based. On the procedure:
as §1

The next series has as its system S. aureus M126. Described as above. The settings on record: Staphylococcus aureus; S. aureus M126, highly meticillin-resistant strain. The class given is cell-based. The procedure: as §1
In a further series the test system is S. marcescens No. 1. The description is as above. The settings on record: Serratia marcescens. It counts as cell-based. On the procedure: as §1
Series [1] can be described thus: Stability against DHP-I (pig). It counts as in vitro ADME. The settings on record: kidney dhp-i, 100 μg (potency)/ml, 37° C., pH 7.0, read-out: residue (%) of the carbapenem derivative. The procedure:
(§2) The stability of representative compounds, among the novel carbapenem derivatives of the present invention, against kidney dehydropeptidase-I (DHP-I) of a pig and a mouse was measured, and the residue (%) of the carbapenem derivatives three hr after the initiation of the test is summarized in Table 6.
(§3) 1.5 g of a kidney acetone powder (manufactured by Sigma) Porcine Type II (Lot. 33H7225) was suspended in 100 ml of 50 mM Tris-HCl buffer (pH 7.0) containing 20% butanol, and the suspension was stirred at 5° C. for 48 hr. The suspension was then dialyzed against 50 mM Tris-HCl buffer (pH 7.0) (a cellulose tube 30/32 Viskase Sales Corp.) until the odor of butanol disappeared, thereby removing butanol. The dialyzate is centrifuged at 10000×g (KUBOTA 6800) for 20 min, and the supernatant was obtained as a partially purified DHP-I. This partially purified DHP-I was subdivided and stored at -80° C. The above procedure was repeated, except that 1.5 g of Mouse (Lot. 23F8105) was used. Thus, a partially purified DHP-I was prepared and stored.
(§4) For the carbapenem as the substrate agent, a solution (2000 μg (potency)/ml) was prepared using sterilized, purified water. For the sample solution, the carbapenem (2000 μg (potency)/ml) solution was added to the partially purified DHP-I of each animal to a final concentration of 100 μg (potency)/ml). For the blank, 50 mM Tris-HCl buffer (pH 7.0) was used instead of the partially purified DHP-I of each animal. The reaction was allowed to proceed at 37° C. for 3 hr, and a given amount of the reaction mixture was sampled. Methanol in the same amount as the sampled reaction mixture was added under ice cooling to terminate the reaction. The reaction mixture was filtered through a filter (Sanprep LCR 13-LH manufactured by MILLIPORE) and subjected to HPLC (column: CAPCELL PACK C18SG120, manufactured by Shiseido Co., Ltd.; detection: UV; mobile layer: acetonitrile/10 mM aqueous acetic acid solution) to determined the residue (%).
(§5) Residue (%)=(Sample Peak Area/Blank Peak Area)×100

A short description of series [2]: Stability against DHP-I (mouse). The class given is in vitro ADME. The settings on record: kidney dhp-i, 100 μg (potency)/ml, 37° C., pH 7.0, read-out: residue (%) of the carbapenem derivative. On the procedure:
as §2, §3, §4, §5

Where [3] appears, read: P. vulgaris GN76, read-out: MIC.
[4] abbreviates: Ps. aeruginosa GN10362, read-out: MIC.

As to `C[C@@H](O)[C@H]1C(=O)N2C(C(=O)O)=C(SCCN=CN)C[C@H]12` [Compound A, Imipenem, reference compound], the MIC against C. freundii GN346 came to 0.1 µg/mL (≈ 0.334 µM); against E. cloacae G-0008, 0.1 µg/mL (≈ 0.334 µM); against E. coli GN206, 0.1 µg/mL (≈ 0.334 µM); in the series on E. coli NIHJ JC-2, 0.1 µg/mL (≈ 0.334 µM); in the series with K. pneumoniae PCI602, 0.39 µg/mL (≈ 1.3 µM); against M. morganii 1510 it was 0.78 µg/mL (≈ 2.61 µM). The MIC in the series with P. vulgaris GN76 (GN76) was 3.13 µg/mL (≈ 10.5 µM); against Ps. aeruginosa GN10362 (GN10362), 1.56 µg/mL (≈ 5.21 µM); with S. aureus 209P JC-1, less than 0.025 µg/mL; in the series on S. aureus M126 it was 50 µg/mL (≈ 167 µM); in the series on S. marcescens No. 1, 0.39 µg/mL (≈ 1.3 µM). In addition, the remaining at 3 h in series [1] amounted to 24%; in series [2] it was 0.6%.

As for `CC(=N)N1CC[C@H](SC2=C(C(=O)O)N3C(=O)[C@H]([C@@H](C)O)[C@H]3C2)C1` [Compound B, Panipenem, reference compound], the MIC is 0.2 µg/mL (≈ 0.589 µM) in the series with C. freundii GN346; 0.2 µg/mL (≈ 0.589 µM) with E. cloacae G-0008; 0.2 µg/mL (≈ 0.589 µM) in the series with E. coli GN206; 0.1 µg/mL (≈ 0.295 µM) with E. coli NIHJ JC-2; 0.2 µg/mL (≈ 0.589 µM) against K. pneumoniae PCI602; 0.78 µg/mL (≈ 2.3 µM) against M. morganii 1510. Moreover, the minimal inhibitory concentration (MIC) in the series with P. vulgaris GN76 (setting [3]) was 3.13 µg/mL (≈ 9.22 µM); with Ps. aeruginosa GN10362 (setting [4]), 12.5 µg/mL (≈ 36.8 µM); with S. aureus 209P JC-1, less than 0.025 µg/mL; against S. aureus M126, 25 µg/mL (≈ 73.7 µM); against S. marcescens No. 1 it was 0.39 µg/mL (≈ 1.15 µM). Besides, the results for the remaining at 3 h in series [1] and in series [2] were 19% and 28%, respectively.

As for `C[C@@H](O)[C@H]1C(=O)N2C(C(=O)O)=C(S[C@@H]3CN[C@H](C(=O)N(C)C)C3)[C@H](C)[C@H]12` [Compound C, Meropenem], the results for the remaining at 3 h in series [1] and in [2] were 71% and 18%, respectively.

Take `C[C@@H](O)[C@H]1C(=O)N2C(C(=O)O)=C(S[C@@H]3CN[C@H](Cc4csc5cncn45)C3)[C@H](C)[C@H]12` [Ex. 20, (1R,5S,6S)-6-((1R)-1-Hydroxyethyl)-2-[(3S,5R)-5-(imidazo[5,1-b]thiazol-3-yl)methylpyrrolidin-3-yl]thio-1-methylcarbapen-2-em-3-carboxylic acid]: the remaining at 3 h came to 100% in series [1] and 97% in series [2].

Regarding `C[C@@H](O)[C@H]1C(=O)N2C(C(=O)O)=C(S[C@@H]3CN[C@H](Cc4cn5c[n+](CC(N)=O)cc5s4)C3)[C@H](C)[C@H]12` [Ex. 26, (1R,5S,6S)-2-[(3S,5S)-5-[6-(Carbamoylmethyl)imidazo[5,1-b]thiazolium-2-yl]methylpyrrolidin-3-yl]thio-6-((1R)-1-hydroxyethyl)-1-methylcarbapen-2-em-3-carboxylic acid iodide], the MIC with C. freundii GN346 came to 0.05 µg/mL; against E. cloacae G-0008 it was 0.05 µg/mL; with E. coli GN206 it was 0.05 µg/mL; in the series with E. coli NIHJ JC-2, 0.05 µg/mL; with K. pneumoniae PCI602, 0.1 µg/mL; in the series on M. morganii 1510, 0.39 µg/mL. For the same molecule, the MIC with P. vulgaris GN76 (setting [3]) was 0.39 µg/mL; with Ps. aeruginosa GN10362 (setting [4]), 0.78 µg/mL; with S. aureus 209P JC-1 it was less than 0.025 µg/mL; in the series on S. aureus M126, 6.25 µg/mL; against S. marcescens No. 1 it was 0.2 µg/mL. In addition, the remaining at 3 h in series [1] is 95%; in [2], 90%.
